The subject of one test is contaminating bacteria. Nature of the test: Alcohol production plant trial, fermentor drop data (50 m/g/y dry grind, corn). Type of test: cell-based. The note with it: 0.5 ppm. The protocol: This trial was conducted at a 50 million gallon per year (m/g/y) dry grind fuel alcohol production facility utilizing corn as a fermentation substrate. Batch yeast propagation and fermentation process were utilized. Antimicrobials were added to the fermentor during the fill cycle at approximately 30% fill.
No other changes were made to the process or chemical additions that would influence the fermentation kinetics monitored during 3 sets of fermentor batches listed below. The fermentation data was accumulated at the end (drop) of the fermentation process for each of the fermentors. Fermentation kinetics was measured for three batch cycles including:
Set 1—“Pre Penicillin G Procaine trial”-10 fermentor batches using a level of 0.5 ppm Virginiamycin. See results in Table 2.
Set 2—“Penicillin G Procaine trial”-10 fermentor batches using a level of 0.5 ppm of Penicillin G Procaine. See results in Table 3.
Set 3—“Post Penicillin G Procaine trial”-10 fermentor batches using a level of 0.5 ppm of Virginiamycin. See results in Table 4.

The subject of the next test is Lactobacillus fermentum. Nature of the test: Comparative efficacy analysis Virginiamycin vs. Penicillin G Procaine, growth in MRS broth, 24 well plate. Format: cell-based. The text has this:
The most commonly found microorganism in fuel ethanol producing plants is the Lactobacillus fermentum bacterium and is considered as an “industry normal” bacterium. This example compares the use of a Bactenix® line of products, Penicillin G Procaine-antibiotic versus Virginiamycin-antibiotic to control “industry normal” Lactobacillus fermentum bacterium. This trial uses an alcohol water mixture to assure total dissolving of antibiotics. This assures that the correct concentrations of antibiotics are going into the test wells and thereby preventing under dosing during the trial. All bacteria tested were industry specific isolates that were obtained from actual corn mash samples from fermentation alcohol production plants. The trial was set up as follows: • 1. Dissolve 0.1 g of each of the antibiotics in 1 ml water and then add 5 ml of ethanol, vortex and bring up to 10 ml with sterile water to from a suspension. • 2. Dilute the previous suspension 1:10 with sterile water. This gives a one mg/ml concentration. • 3. Filter the suspension by running through a 0.2 μm syringe filter. • 4. Add four μl broth in a centrifuge then add antibiotics to MRS (DeMan, Rogosa and Sharpe) broth at the concentrations required for the test. • 5. Take four μl of a fresh 24-hour culture of the target organisms and add to the corresponding empty wells in a pre-labeled 24 well tissue culture plate. • 6. Pipette one ml of the appropriate antibiotic media to each well of the plate. • 7. Incubate at 33° C. for 24 hours. • 8. Read plates for bacterial growth and re-incubate the plates at 33° C. • 9. After 48 hours read and report the final results.

Where [1] appears, read: Set 1 'Pre Penicillin G Procaine trial', 10 Batch average.
[2] abbreviates: Set 1 'Pre Penicillin G Procaine trial', drop data, single fermentor batch.
The mark [3] stands for this setting: Set 3 'Post Penicillin G Procaine trial', 10 Batch average.
[4] abbreviates: Set 3 'Post Penicillin G Procaine trial', drop data, single fermentor batch.

Where “and” joins values, the source holds several entries; their conditions need not be identical. Identical values can stand only once.

On to Virginiamycin, for which, in the test on contaminating bacteria (setting [1]), the Acetic % is reported as 0.04%, the EtOH v/v % is listed as 15.48 v/v %, the Glucose % is given as 0.29% and the Lactic % worked out at 0.64%. In the test with contaminating bacteria (setting [2]), the Acetic % is 0.02% and 0.04% and 0.13% and 0.03%; the Glucose % is 0.36% and 0.27% and 0.26% and 0.31% and 0.29% and 0.3% and 0.16%; the Lactic % was 0.59% and 0.71% and 0.85% and 0.56% and 0.79% and 0.584% and 0.41%. In the test with contaminating bacteria (setting [3]), this substance had an Acetic % of 0.04%, an EtOH v/v % of 15.49 v/v %, a Glucose % of 0.30% and a Lactic % of 0.57%. In the test on contaminating bacteria (setting [4]), the Acetic % is 0.05% and 0.04% and 0.03%; the Glucose % was 0.26% and 0.35% and 0.29% and 0.32% and 0.30% and 0.33% and 0.25%. Besides, the “inhibition of growth of the 'industry normal' bacteria” value with Lactobacillus fermentum (at 0.5 ppm, as per table 1) is “did not seem to inhibit the growth”. Besides, the “effectiveness against Lactobacillus fermentum” value in the test with Lactobacillus fermentum (dosage of above 1 ppm, compared with Penicillin G Procaine) was “comparable effectiveness as Penicillin G Procaine”. The “concentration from which effective against Lactobacillus fermentum” value in the test with Lactobacillus fermentum (industry standard L. fermentum isolate, MRS broth, 33° C., read at 24 and 48 hours) is reported as more than 0.5 ppm.

These data come from US8828696B2, “Use of Penicillin G Procaine as a selective antimicrobial agent in the production of alcohol by fermentation” (Lallemand Specialites, Inc, priority 2008, dated 2014).
